Test: mn = molality of the nth substance listed, in mol/kg
Settings: 100 kPa, Liquid; for speed of sound: Frequency=3 MHz, Sing-around technique in a fixed-path interferometer; for mass density: Vibrating tube method

O=C([O-])CC(O)(CC(=O)[O-])C(=O)[O-].[K+].[K+].[K+] [potassium citrate] + O
Settings | mass density, 288.15 K [kg/m3] | mass density, 298.15 K [kg/m3] | mass density, 308.15 K [kg/m3] | mass density, 318.15 K [kg/m3] | speed of sound, 288.15 K [m/s] | speed of sound, 298.15 K [m/s] | speed of sound, 308.15 K [m/s] | speed of sound, 318.15 K [m/s]
m1 = 0.2 | 1036.81 | 1034.22 | 1030.82 | 1026.73 | 1505.5 | 1533 | 1553.9 | 1568.9
m1 = 0.4 | 1073.44 | 1070.41 | 1066.68 | 1062.34 | 1544.3 | 1569.1 | 1587.9 | 1601.3
m1 = 0.6 | 1128.01 | 1124.42 | 1120.28 | 1115.69 | 1604 | 1625.9 | 1641.7 | 1652.5

Source: the NIST ThermoML archive (doi:10.1021/acs.jced.5b00933)
